Measurements: paper PMC11279465, “Dual Inhibitors of P-gp and Carbonic Anhydrase XII (hCA XII) against Tumor Multidrug Resistance with Piperazine Scaffold” (Molecules, 2024)

Experiments:
K562/DOX cells [1] = assay: Intrinsic cytotoxicity (MTT); type: cell-based, human; conditions: compound alone at 3 µM, 72 h
Method: Compounds were first studied at 1 and 3 µM concentrations to evaluate their intrinsic cytotoxicity in both the parental K562 and the resistant K562/DOX cell lines, using the MTT assay. All compounds had no intrinsic cytotoxicity in the parental line.
(§1) The intrinsic toxicity of the studied compounds was determined by an MTT assay. K562 and K562/DOX were exposed for 72 h with compounds at 1 and 3 µM concentrations while HT29, A549, HT29/DOX and A549/DOX cells were incubated for 48 h with compounds used at different concentrations (from 10 nM to 50 µM). The percentage of growth compared to the untreated control was transformed into histograms with the GraphPad Prism 5 program.

HT29/DOX cells [2] = assay: Intrinsic cytotoxicity (MTT); type: cell-based, human; conditions: compound alone at 1 µM; HT29/DOX; 48 h
Method: (§2) All compounds were preliminarily studied to evaluate their intrinsic cytotoxicity at different concentrations (from 10 nM to 50 µM) in the parental HT29 and A549 and the resistant HT29/DOX and A549/DOX cells using the MTT assay.
as §1, with “program. […]” for “program.”

A549/DOX cells [3] = assay: Intrinsic cytotoxicity (MTT); type: cell-based, human; conditions: compound alone at 1 µM; A549/DOX; 48 h
Method: as §2
as §1, with “program. […]” for “program.”

K562/DOX cells [4] = assay: Doxorubicin cytotoxicity enhancement assay (MTT); type: cell-based, human; conditions: compound at 1 µM, 72 h
Method: K562 is a highly undifferentiated erythroleukemia cell line. The doxorubicin-resistant K562/DOX cells overexpress almost exclusively the transporter membrane protein P-gp.
K562/DOX cells were incubated for 72 h with different concentrations of doxorubicin in combination with 1 or 3 µM of all compounds. […] HT29, A549, HT29/DOX and A549/DOX cells were incubated for 48 h with 5 µM doxorubicin, alone or in combination with 1 or 3 µM of selected compounds. Cell viability of the cell lines was measured by the MTT assay, using a Synergy HT microplate spectrofluorometer (Bio-Tek Instruments, Winooski, VT, USA). The absorbance of untreated cells was considered 100%; results were expressed as a percentage of viable treated cells versus the control untreated cells.

hCA I = molecular target: T1, hCA I (Homo sapiens, UniProt P00915); assay: CA inhibition, stopped-flow CO2 hydrase assay; type: biochemical; conditions: stopped-flow technique; incubation time 6 h; mean of 3 assays
T1 construct: made in house
T1 sequence (P00915 whole entry): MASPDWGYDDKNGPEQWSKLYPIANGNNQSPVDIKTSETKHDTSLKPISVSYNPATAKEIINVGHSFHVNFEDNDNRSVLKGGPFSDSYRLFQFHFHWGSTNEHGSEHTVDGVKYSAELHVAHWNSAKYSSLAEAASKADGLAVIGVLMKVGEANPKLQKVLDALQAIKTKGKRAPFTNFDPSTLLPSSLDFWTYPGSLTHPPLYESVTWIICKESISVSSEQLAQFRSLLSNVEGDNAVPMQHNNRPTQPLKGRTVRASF
Method: (§3) Four hCA isoforms were used in this assay: the cytosolic hCA I and II and the tumor-associated transmembrane hCA IX and XII isoforms. Acetazolamide (AAZ) was used as a standard inhibitor.
(§4) An SX.18MV-R Applied Photophysics (Oxford, UK) stopped-flow instrument has been used to assay the catalytic/inhibition of various CA isozymes. […] Saturated CO2 solutions in water at 25 °C were used as substrate. Stock solutions of inhibitors were prepared at a concentration of 10 μM (in DMSO-water 1:1, v/v) and dilutions up to 0.01 nM were carried out with the assay buffer mentioned above. […] Inhibitor and enzyme solutions were preincubated together for 6 h at room temperature prior to assay in order to allow for the formation of the E-I complex. […] The inhibition constants were obtained by non-linear least-squares methods using the Cheng–Prusoff equation, as reported earlier, and represent the mean from at least three different determinations.

hCA IX = molecular target: T2, hCA IX (Homo sapiens, UniProt Q16790); assay: CA inhibition, stopped-flow CO2 hydrase assay; type: biochemical; conditions: stopped-flow technique; incubation time 6 h; mean of 3 assays
T2 construct: made in house
Method: as §3, §4

hCA II = molecular target: T3, hCA II (Homo sapiens, UniProt P00918); assay: CA inhibition, stopped-flow CO2 hydrase assay; type: biochemical; conditions: stopped-flow technique; incubation time 6 h; mean of 3 assays
T3 construct: made in house
Method: as §3, §4

hCA XII = molecular target: T4, hCA XII (Homo sapiens, UniProt O43570); assay: CA inhibition, stopped-flow CO2 hydrase assay; type: biochemical; conditions: stopped-flow technique; incubation time 6 h; mean of 3 assays
T4 construct: made in house
T4 sequence (O43570 25-354): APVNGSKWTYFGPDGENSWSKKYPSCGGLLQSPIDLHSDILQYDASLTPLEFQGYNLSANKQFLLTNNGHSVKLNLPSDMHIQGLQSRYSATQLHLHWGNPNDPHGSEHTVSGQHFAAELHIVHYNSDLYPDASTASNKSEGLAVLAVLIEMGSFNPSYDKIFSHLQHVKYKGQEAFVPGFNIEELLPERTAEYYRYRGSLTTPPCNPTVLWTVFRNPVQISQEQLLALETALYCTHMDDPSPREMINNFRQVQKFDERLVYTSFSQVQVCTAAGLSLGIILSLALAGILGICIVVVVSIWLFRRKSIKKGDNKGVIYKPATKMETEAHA
Method: as §3, §4

HT29/DOX cells [5] = assay: Intracellular doxorubicin accumulation; type: cell-based, human; conditions: compound at 3 µM + doxorubicin 5 µM, 24 h, vs doxorubicin alone
Method: (§5) Furthermore, we evaluated the intracellular accumulation of 5 µM doxorubicin in HT29/DOX and A549/DOX cells alone and in the presence of derivatives 1, 2, 4–6, 14, 19 and 33, studied at 1 and 3 µM. This test allowed us to investigate if the reduced viability measured in the co-administration assay was due to different retention of the anticancer drug within the cells. In the parental HT29 and A549 cell lines, we measured a greater amount of intracellular doxorubicin compared to their resistant counterparts, which was not enhanced by our selected compounds (Supplementary Materials, Figure S7). However, in HT29/DOX and A549/DOX cells, derivatives 1, 2, 4–6, 14, 19 and 33 were able to increase the intracellular retention of the anticancer drug, in a dose-dependent way. […]
(§6) Intracellular doxorubicin was measured in 10,000 cells seeded into 96-well plates and incubated for 24 h with 5 µM doxorubicin with or without 1 µM and 3 µM of each compound. The intracellular drug content was measured fluorimetrically as detailed previously using a Synergy HTX 96-well plate reader. The results were expressed as nmol doxorubicin/mg cell proteins based on the titration curve previously prepared.

A549/DOX cells [6] = assay: Intracellular doxorubicin accumulation; type: cell-based, human; conditions: compound at 3 µM + doxorubicin 5 µM, 24 h, vs doxorubicin alone
Method: as §5, §6

P-gp = P-gp (Homo sapiens, UniProt P08183); assay: Calcein-AM transport inhibition in MDCK-MDR1 cells; type: cell-based; parameters: expressed in transfected cells; host or cells: MDCK (Madin-Darby Canine Kidney); conditions: mean ± SEM
Chain of P-gp (P08183 whole entry): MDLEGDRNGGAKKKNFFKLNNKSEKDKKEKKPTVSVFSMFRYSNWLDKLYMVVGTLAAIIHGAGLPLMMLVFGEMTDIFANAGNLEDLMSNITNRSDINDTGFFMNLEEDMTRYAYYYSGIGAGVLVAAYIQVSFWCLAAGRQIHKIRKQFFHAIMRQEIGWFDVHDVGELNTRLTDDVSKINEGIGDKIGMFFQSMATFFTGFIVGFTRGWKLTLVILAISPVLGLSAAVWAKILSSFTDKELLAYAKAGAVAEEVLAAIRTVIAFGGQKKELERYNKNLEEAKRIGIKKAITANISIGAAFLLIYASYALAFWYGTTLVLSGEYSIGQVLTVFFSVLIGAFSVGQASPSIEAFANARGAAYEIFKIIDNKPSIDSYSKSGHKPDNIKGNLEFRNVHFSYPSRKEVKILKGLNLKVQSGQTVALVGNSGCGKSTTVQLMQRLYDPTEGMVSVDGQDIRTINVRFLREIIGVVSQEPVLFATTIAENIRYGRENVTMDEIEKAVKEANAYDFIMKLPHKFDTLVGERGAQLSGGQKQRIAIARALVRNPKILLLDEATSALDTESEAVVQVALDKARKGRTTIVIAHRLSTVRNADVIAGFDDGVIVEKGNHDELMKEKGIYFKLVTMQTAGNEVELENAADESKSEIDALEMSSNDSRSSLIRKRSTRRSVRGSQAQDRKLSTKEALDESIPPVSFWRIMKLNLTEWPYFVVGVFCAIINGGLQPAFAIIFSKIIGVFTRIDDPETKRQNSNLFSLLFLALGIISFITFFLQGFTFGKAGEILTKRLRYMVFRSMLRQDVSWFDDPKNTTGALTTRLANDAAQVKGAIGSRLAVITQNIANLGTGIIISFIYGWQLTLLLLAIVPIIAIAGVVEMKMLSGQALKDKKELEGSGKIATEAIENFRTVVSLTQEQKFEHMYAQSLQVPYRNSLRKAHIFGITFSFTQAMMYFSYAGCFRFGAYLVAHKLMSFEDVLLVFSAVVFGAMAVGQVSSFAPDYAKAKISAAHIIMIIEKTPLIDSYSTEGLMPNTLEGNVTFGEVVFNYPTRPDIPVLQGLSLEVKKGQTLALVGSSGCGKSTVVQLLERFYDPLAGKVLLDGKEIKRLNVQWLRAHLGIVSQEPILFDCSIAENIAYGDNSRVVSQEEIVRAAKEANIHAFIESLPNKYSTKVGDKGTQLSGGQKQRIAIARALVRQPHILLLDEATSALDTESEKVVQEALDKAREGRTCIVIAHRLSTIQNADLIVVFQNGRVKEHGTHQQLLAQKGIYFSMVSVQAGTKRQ
Description: The MDR interaction potency of these compounds was studied by detecting the inhibition of the P-gp-, MRP1- or BCRP-mediated efflux of a substrate in cells overexpressing the studied pumps. In detail, we measured the following: (i) the transport inhibition of the profluorescent probe calcein-AM (P-gp and MRP1 substrate) in MDCK-MDR1 and MDCK-MRP1 cells (P-gp- and MRP1-overexpressing cells, respectively); (ii) the transport inhibition of the fluorescent probe Hoechst 33342 (BCRP substrate) in MDCK-BCRP cells (BCRP-overexpressing cells).
Experiments were performed as previously described. MDCK-MDR1 and MDCK-MRP1 cells (30,000 cells per well) were seeded in a 96-well black CulturePlate in 100 µL of medium and allowed to grow overnight in a humidified atmosphere of 5% CO2 at 37 °C. Tested compounds (100 µL) in a final concentration ranging between 0.01 nM and 100 µM, solubilized in culture medium, were added to the monolayers. After 30 min in a humidified atmosphere of 5% CO2 at 37 °C, 100 µL of Calcein-AM in phosphate-buffered saline (PBS) was added to obtain a final concentration of 2.5 µM and the plate was incubated for 30 min. All wells were washed 3 times with 100 µL ice-cold PBS and read with Victor3 (PerkinElmer) after adding 100 µL of cold PBS. Excitation and emission wavelengths of 485 nm and 535 nm, respectively, were used. In these experimental conditions, cell Calcein-AM accumulation in the absence and in the presence of each tested compound was evaluated and compared to the basal level of fluorescence derived from untreated cells. The increase in fluorescence from the baseline level was measured in the treated wells. EC50 values were determined by fitting the rate of fluorescence increase versus log[dose].

HT29/DOX cells [7] = assay: Doxorubicin co-administration assay (MTT); type: cell-based, human; conditions: compound at 3 µM + doxorubicin 5 µM, 48 h
Method: (§7) These compounds were then assayed at 1 and 3 µM concentrations in co-administration with doxorubicin at a concentration of 5 µM, which is known to discriminate well between sensitive and resistant cells. […] Moreover, in the A549/DOX cell line, the co-administration of 1, 2, 4–6, 14 and 19, tested at 3 µM, led to the highest enhancement of doxorubicin toxicity reaching a reduction of nearly 55.0% in cell viability.
(§8) K562/DOX cells were incubated for 72 h with different concentrations of doxorubicin in combination with 1 or 3 µM of all compounds. IC50 was the concentration killing 50% of cells and was determined graphically from relative survival curves obtained by GraphPad Prism 5 software (GraphPad, San Diego, CA, USA). HT29, A549, HT29/DOX and A549/DOX cells were incubated for 48 h with 5 µM doxorubicin, alone or in combination with 1 or 3 µM of selected compounds. Cell viability of the cell lines was measured by the MTT assay, using a Synergy HT microplate spectrofluorometer (Bio-Tek Instruments, Winooski, VT, USA). The absorbance of untreated cells was considered 100%; results were expressed as a percentage of viable treated cells versus the control untreated cells.

A549/DOX cells [8] = assay: Doxorubicin co-administration assay (MTT); type: cell-based, human; conditions: compound at 3 µM + doxorubicin 5 µM, 48 h
Method: as §7, §8

Structure (SMILES)	reduction of cellular viability (K562/DOX cells [1])	toxicity (HT29/DOX cells [2]) [%]	toxicity (A549/DOX cells [3]) [%]	RF (Reversal Fold: IC50 of doxorubicin alone / in presence of modulator) (K562/DOX cells [4])	Ki (hCA I) [µM]	Ki (hCA IX) [nM]	Ki (hCA II) [µM]	Ki (hCA XII) [nM]	greater accumulation of doxorubicin (HT29/DOX cells [5]) [fold]	greater accumulation of doxorubicin (A549/DOX cells [6]) [fold]	EC50 (P-gp) [µM]	reduction in cell viability (HT29/DOX cells [7]) [%]	reduction in cell viability (A549/DOX cells [8]) [%]
COc1ccc(C(CCCN2CCN(CCOc3ccc4ccc(=O)oc4c3)CC2)c2ccc(OC)cc2)cc1 [Compound 25, 7-(2-(4-(4,4-Bis(4-methoxyphenyl)butyl)piperazin-1-yl)ethoxy)-2H-chromen-2-one]	30–50%	≥ 35	≥ 35	5.9	> 10	113	> 10	84.7	–	–	–	–	–
COc1ccc(C(CCCN2CCN(CCCCOc3ccc4oc(=O)ccc4c3)CC2)c2ccc(OC)cc2)cc1 [Compound 33, 6-(4-(4-(4,4-Bis(4-methoxyphenyl)butyl)piperazin-1-yl)butoxy)-2H-chromen-2-one]	–	–	–	9.9	> 10	74.6	> 10	46.8	3	4	3.02 ± 0.09	67.6	62.6
